Measured values as given in patent US5219874A, “Heterocyclic acids” (Imperial Chemical Industries PLC, priority 1991, dated 1993).

Columns and labels:
TXA2 synthase = molecular target: T1, TXA2 synthase (Homo sapiens, UniProt P24557); test: test (e): TXA2 synthase inhibition in human platelet microsomal preparation; format: biochemical; conditions: [1-^14 C]arachidonic acid
T1 construct: using a human platelet microsomal TXA2 synthase preparation; from tissue; host or cells: human platelet microsomes
T1 sequence (P24557 1-533): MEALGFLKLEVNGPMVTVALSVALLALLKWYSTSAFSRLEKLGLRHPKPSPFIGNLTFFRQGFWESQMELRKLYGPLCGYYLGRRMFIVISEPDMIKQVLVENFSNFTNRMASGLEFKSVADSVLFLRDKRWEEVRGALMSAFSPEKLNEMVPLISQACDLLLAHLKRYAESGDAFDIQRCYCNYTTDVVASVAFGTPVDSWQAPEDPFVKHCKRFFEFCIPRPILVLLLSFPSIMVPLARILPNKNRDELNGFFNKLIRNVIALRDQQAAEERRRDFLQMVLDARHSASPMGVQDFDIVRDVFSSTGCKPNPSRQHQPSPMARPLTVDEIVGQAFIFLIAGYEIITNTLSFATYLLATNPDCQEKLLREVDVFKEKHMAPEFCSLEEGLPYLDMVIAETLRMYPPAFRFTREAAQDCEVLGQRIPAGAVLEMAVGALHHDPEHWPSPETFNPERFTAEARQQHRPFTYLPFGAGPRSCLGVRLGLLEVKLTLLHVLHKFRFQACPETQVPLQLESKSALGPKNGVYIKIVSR

[1] = molecular target: T2, U46619 stimulated platelet aggregation (Homo sapiens, UniProt P21731); test: test (b): blood platelet aggregation test, TXA2 antagonism against U46619; format: cell-based; conditions: human platelet-rich plasma; agonist U46619; read-out: pA2, test (b) (converted)
T2 construct: aggregating human, citrated, platelet-rich plasma; endogenous in cells; host or cells: human platelets in citrated platelet-rich plasma
T2 sequence (P21731 1-343): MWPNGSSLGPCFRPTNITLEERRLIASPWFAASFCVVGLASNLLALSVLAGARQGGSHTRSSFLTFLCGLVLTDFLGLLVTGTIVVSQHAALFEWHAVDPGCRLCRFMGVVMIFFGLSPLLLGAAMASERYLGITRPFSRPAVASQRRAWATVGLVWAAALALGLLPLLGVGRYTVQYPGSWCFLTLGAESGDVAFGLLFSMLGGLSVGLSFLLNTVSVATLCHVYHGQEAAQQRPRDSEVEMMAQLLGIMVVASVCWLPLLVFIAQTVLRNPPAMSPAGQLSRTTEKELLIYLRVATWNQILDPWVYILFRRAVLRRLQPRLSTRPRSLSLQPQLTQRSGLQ
From the text: (b) a blood platelet aggregation test based on that described by Born (Nature, 1962, 194, 927-929) and involving:
(i) aggregating human, citrated, platelet-rich plasma by addition of the TXA2 mimetic agent U46619 so that a dose-response curve is generated;
(ii) generating a dose-response curve for U46619 stimulated platelet aggregation in the presence of increasing amounts of test compound (generally in the range 10^-5 M to 10^-10 M); and
(iii) calculating a pA2 value indicating potency of TXA2 antagonism for the test compound, averaged over several concentrations, from the calculated 50% response value for U46619 aggregation in the presence and absence of test compound; or […]

prostacyclin synthase = molecular target: T3, prostacyclin synthase (Homo sapiens, UniProt Q16647); test: test (g): prostacyclin synthase inhibition in cultured human endothelial cells (6-oxoPGF1a radioimmunoassay); format: cell-based
T3 construct: obtaining cultured human endothelial cells from unbilical vein; endogenous in cells; host or cells: cultured human umbilical vein endothelial cells
T3 sequence (Q16647 1-500): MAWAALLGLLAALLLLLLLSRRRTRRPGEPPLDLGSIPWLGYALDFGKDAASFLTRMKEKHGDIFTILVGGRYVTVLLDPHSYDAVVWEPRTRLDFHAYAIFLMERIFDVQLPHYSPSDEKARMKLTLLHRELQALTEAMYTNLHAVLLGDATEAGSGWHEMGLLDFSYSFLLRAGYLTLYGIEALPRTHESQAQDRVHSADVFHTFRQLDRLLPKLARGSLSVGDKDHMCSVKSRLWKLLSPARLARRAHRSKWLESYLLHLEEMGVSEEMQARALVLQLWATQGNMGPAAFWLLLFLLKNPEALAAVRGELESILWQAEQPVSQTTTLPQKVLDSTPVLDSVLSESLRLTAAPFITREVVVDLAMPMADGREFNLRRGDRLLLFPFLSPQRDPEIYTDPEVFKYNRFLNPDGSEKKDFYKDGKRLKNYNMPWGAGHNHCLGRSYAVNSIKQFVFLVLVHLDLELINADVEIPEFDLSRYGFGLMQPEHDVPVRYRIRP
Method: The growth medium is aspirated from the wells and the endothelial cell monolayers are washed twice with alquots of medium (1 ml, Earls 199 medium) containing vehicle or compound. The monolayers are first incubated with medium containing vehicle or compound for 30 minutes at 37° C. Arachidonic acid (10 micro M) is added to the medium and the monolayers are incubated for a further 2 hours with a fresh aliquot of medium. The incubation is terminated by aspiration of the medium into indomethacin (1 micro M). The sample is stored at -20° C. and radioimmunoassay for the stable metabolite 6-oxoPGF1a is performed. By comparison of the amount of 6-oxoPGF1a present in a sample incubated in the presence of compound to one incubated in the absence of compound, the prostacyclin synthase inhibitory properties of the compound may be assessed.

IC50 (TXA2 synthase): 16 nM | Kb [1]: 7.76 nM | IC50 (prostacyclin synthase; human endothelial cells from umbilical vein, unit inferred): 211000 nM
Structure (SMILES): Cc1ccc(OC(C)(C)[C@H]2OC[C@@H](C/C=C\CCC(=O)O)[C@@H](c3cncs3)O2)c([N+](=O)[O-])c1 [Example 2]
prostacyclin inhibitory properties, test (g) (prostacyclin synthase; IC50 greater than 100 micro M deemed no significant inhibition): no significant prostacyclin inhibitory properties
